Results: PubChem BioAssay (NCI)
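Five compound concentrations were applied to cells in 96-well plates for 48 hours; endpoints were derived by simple linear interpolation of the resulting dose-response curve. Definition used: TGI = concentration required for complete inhibition of growth.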

What was measured:
Assay in all cases: NCI-60 cell line screen, 48 h
SW-620 colon = tested on: SW-620 colon
HOP-62 NSCLC = tested on: HOP-62 NSCLC
NCI/ADR-RES ovarian = tested on: NCI/ADR-RES ovarian
HOP-92 NSCLC = tested on: HOP-92 NSCLC
IGROV1 ovarian = tested on: IGROV1 ovarian
UO-31 renal = tested on: UO-31 renal
A498 renal = tested on: A498 renal
NCI-H460 lung = tested on: NCI-H460 lung
SF-268 CNS = tested on: SF-268 CNS
M14 melanoma = tested on: M14 melanoma
BT-549 breast = tested on: BT-549 breast
SF-295 CNS = tested on: SF-295 CNS
LOX IMVI melanoma = tested on: LOX IMVI melanoma
U251 CNS = tested on: U251 CNS
T-47D breast = tested on: T-47D breast
CCRF-CEM leukemia = tested on: CCRF-CEM leukemia
NCI-H23 lung = tested on: NCI-H23 lung
PC-3 prostate = tested on: PC-3 prostate
ACHN renal = tested on: ACHN renal
NCI-H522 lung = tested on: NCI-H522 lung
HCT-15 colon = tested on: HCT-15 colon
MCF7 breast = tested on: MCF7 breast
HCC-2998 colon = tested on: HCC-2998 colon
HL-60(TB) leukemia = tested on: HL-60(TB) leukemia
MDA-MB-231 breast = tested on: MDA-MB-231 breast
HCT-116 colon = tested on: HCT-116 colon
NCI-H226 lung = tested on: NCI-H226 lung
SK-MEL-5 melanoma = tested on: SK-MEL-5 melanoma
HT29 colon = tested on: HT29 colon
OVCAR-3 ovarian = tested on: OVCAR-3 ovarian
OVCAR-5 ovarian = tested on: OVCAR-5 ovarian
MDA-N = tested on: MDA-N
786-0 renal = tested on: 786-0 renal
SNB-19 CNS = tested on: SNB-19 CNS
MOLT-4 leukemia = tested on: MOLT-4 leukemia
CAKI-1 renal = tested on: CAKI-1 renal
SN12C renal = tested on: SN12C renal
SNB-75 CNS = tested on: SNB-75 CNS
SK-MEL-2 melanoma = tested on: SK-MEL-2 melanoma
MDA-MB-435 = tested on: MDA-MB-435
KM12 colon = tested on: KM12 colon
TK-10 renal = tested on: TK-10 renal
UACC-257 melanoma = tested on: UACC-257 melanoma
RXF 393 renal = tested on: RXF 393 renal
EKVX NSCLC = tested on: EKVX NSCLC
MALME-3M melanoma = tested on: MALME-3M melanoma
A549 NSCLC = tested on: A549 NSCLC
OVCAR-4 ovarian = tested on: OVCAR-4 ovarian
K-562 leukemia = tested on: K-562 leukemia
OVCAR-8 ovarian = tested on: OVCAR-8 ovarian
SK-OV-3 ovarian = tested on: SK-OV-3 ovarian
DU-145 prostate = tested on: DU-145 prostate
HS 578T breast = tested on: HS 578T breast
SK-MEL-28 melanoma = tested on: SK-MEL-28 melanoma
COLO 205 colon = tested on: COLO 205 colon
RPMI-8226 leukemia = tested on: RPMI-8226 leukemia
UACC-62 melanoma = tested on: UACC-62 melanoma
SR leukemia = tested on: SR leukemia
SF-539 CNS = tested on: SF-539 CNS

SMILES: O=C(O)c1cc(=O)[nH]c(=S)[nH]1
- TGI (SW-620 colon): > 100 µM
- TGI (HOP-62 NSCLC): > 100 µM
- TGI (NCI/ADR-RES ovarian): > 100 µM
- TGI (HOP-92 NSCLC): > 100 µM
- TGI (IGROV1 ovarian): > 100 µM
- TGI (UO-31 renal): > 100 µM
- TGI (A498 renal): > 100 µM
- TGI (NCI-H460 lung): > 100 µM
- TGI (SF-268 CNS): > 100 µM
- TGI (M14 melanoma): > 100 µM
- TGI (BT-549 breast): > 100 µM
- TGI (SF-295 CNS): > 100 µM
- TGI (LOX IMVI melanoma): > 100 µM
- TGI (U251 CNS): > 100 µM
- TGI (T-47D breast): > 100 µM
- TGI (CCRF-CEM leukemia): > 100 µM
- TGI (NCI-H23 lung): > 100 µM
- TGI (PC-3 prostate): > 100 µM
- TGI (ACHN renal): > 100 µM
- TGI (NCI-H522 lung): > 100 µM
- TGI (HCT-15 colon): > 100 µM
- TGI (MCF7 breast): > 100 µM
- TGI (HCC-2998 colon): > 100 µM
- TGI (HL-60(TB) leukemia): > 100 µM
- TGI (MDA-MB-231 breast): > 100 µM
- TGI (HCT-116 colon): > 100 µM
- TGI (NCI-H226 lung): > 100 µM
- TGI (SK-MEL-5 melanoma): > 100 µM
- TGI (HT29 colon): > 100 µM
- TGI (OVCAR-3 ovarian): > 100 µM
- TGI (OVCAR-5 ovarian): > 100 µM
- TGI (MDA-N): > 100 µM
- TGI (786-0 renal): > 100 µM
- TGI (SNB-19 CNS): > 100 µM
- TGI (MOLT-4 leukemia): > 100 µM
- TGI (CAKI-1 renal): > 100 µM
- TGI (SN12C renal): > 100 µM
- TGI (SNB-75 CNS): > 100 µM
- TGI (SK-MEL-2 melanoma): > 100 µM
- TGI (MDA-MB-435): > 100 µM
- TGI (KM12 colon): > 100 µM
- TGI (TK-10 renal): > 100 µM
- TGI (UACC-257 melanoma): > 100 µM
- TGI (RXF 393 renal): > 100 µM
- TGI (EKVX NSCLC): > 100 µM
- TGI (MALME-3M melanoma): > 100 µM
- TGI (A549 NSCLC): > 100 µM
- TGI (OVCAR-4 ovarian): > 100 µM
- TGI (K-562 leukemia): > 100 µM
- TGI (OVCAR-8 ovarian): > 100 µM
- TGI (SK-OV-3 ovarian): > 100 µM
- TGI (DU-145 prostate): > 100 µM
- TGI (HS 578T breast): > 100 µM
- TGI (SK-MEL-28 melanoma): > 100 µM
- TGI (COLO 205 colon): > 100 µM
- TGI (RPMI-8226 leukemia): > 100 µM
- TGI (UACC-62 melanoma): > 100 µM

SMILES: O=c1cc(-c2ccccc2)oc2ccc(Oc3nnnn3-c3ccccc3)cc12
- TGI (SW-620 colon): > 100 µM
- TGI (HOP-62 NSCLC): > 82.3 µM
- TGI (NCI/ADR-RES ovarian): > 100 µM
- TGI (SR leukemia): > 100 µM
- TGI (HOP-92 NSCLC): 58.1 µM
- TGI (IGROV1 ovarian): > 100 µM
- TGI (UO-31 renal): > 100 µM
- TGI (A498 renal): > 100 µM
- TGI (NCI-H460 lung): > 100 µM
- TGI (SF-268 CNS): 25.3 µM
- TGI (M14 melanoma): > 100 µM
- TGI (BT-549 breast): 70.7 µM
- TGI (SF-295 CNS): > 79.9 µM
- TGI (LOX IMVI melanoma): > 100 µM
- TGI (U251 CNS): > 74.7 µM
- TGI (T-47D breast): > 100 µM
- TGI (CCRF-CEM leukemia): > 100 µM
- TGI (NCI-H23 lung): > 93.2 µM
- TGI (PC-3 prostate): > 100 µM
- TGI (ACHN renal): > 100 µM
- TGI (NCI-H522 lung): > 100 µM
- TGI (HCT-15 colon): > 100 µM
- TGI (MCF7 breast): > 100 µM
- TGI (HCC-2998 colon): > 100 µM
- TGI (HL-60(TB) leukemia): > 100 µM
- TGI (HCT-116 colon): > 100 µM
- TGI (NCI-H226 lung): > 100 µM
- TGI (SK-MEL-5 melanoma): > 100 µM
- TGI (HT29 colon): > 100 µM
- TGI (OVCAR-3 ovarian): > 100 µM
- TGI (OVCAR-5 ovarian): > 100 µM
- TGI (MDA-N): > 100 µM
- TGI (786-0 renal): > 100 µM
- TGI (SNB-19 CNS): > 82.6 µM
- TGI (MOLT-4 leukemia): > 100 µM
- TGI (CAKI-1 renal): > 86.5 µM
- TGI (SN12C renal): > 100 µM
- TGI (SNB-75 CNS): > 92.5 µM
- TGI (SK-MEL-2 melanoma): > 84.5 µM
- TGI (MDA-MB-435): > 41.9 µM
- TGI (KM12 colon): > 100 µM
- TGI (TK-10 renal): > 100 µM
- TGI (UACC-257 melanoma): > 100 µM
- TGI (RXF 393 renal): > 76.1 µM
- TGI (EKVX NSCLC): > 100 µM
- TGI (SF-539 CNS): > 86.8 µM
- TGI (MALME-3M melanoma): > 100 µM
- TGI (A549 NSCLC): > 100 µM
- TGI (OVCAR-4 ovarian): > 100 µM
- TGI (K-562 leukemia): > 100 µM
- TGI (OVCAR-8 ovarian): > 100 µM
- TGI (SK-OV-3 ovarian): > 100 µM
- TGI (DU-145 prostate): > 100 µM
- TGI (HS 578T breast): > 83 µM
- TGI (SK-MEL-28 melanoma): > 100 µM
- TGI (COLO 205 colon): > 100 µM
- TGI (RPMI-8226 leukemia): > 100 µM
- TGI (UACC-62 melanoma): > 100 µM

SMILES: O=C1CC(=O)c2c(Cl)sc(Cl)c21
- TGI (SW-620 colon): > 100 µM
- TGI (HOP-62 NSCLC): > 100 µM
- TGI (NCI/ADR-RES ovarian): > 100 µM
- TGI (SR leukemia): 75.2 µM
- TGI (HOP-92 NSCLC): > 100 µM
- TGI (IGROV1 ovarian): > 100 µM
- TGI (UO-31 renal): > 100 µM
- TGI (A498 renal): > 100 µM
- TGI (NCI-H460 lung): > 100 µM
- TGI (SF-268 CNS): > 100 µM
- TGI (M14 melanoma): > 100 µM
- TGI (BT-549 breast): > 100 µM
- TGI (SF-295 CNS): > 100 µM
- TGI (LOX IMVI melanoma): > 100 µM
- TGI (U251 CNS): > 100 µM
- TGI (T-47D breast): > 100 µM
- TGI (CCRF-CEM leukemia): > 100 µM
- TGI (NCI-H23 lung): > 100 µM
- TGI (ACHN renal): > 100 µM
- TGI (NCI-H522 lung): 47.1 µM
- TGI (HCT-15 colon): > 100 µM
- TGI (MCF7 breast): > 100 µM
- TGI (HL-60(TB) leukemia): 85.6 µM
- TGI (MDA-MB-231 breast): > 100 µM
- TGI (HCT-116 colon): > 100 µM
- TGI (NCI-H226 lung): > 100 µM
- TGI (SK-MEL-5 melanoma): > 100 µM
- TGI (HT29 colon): > 100 µM
- TGI (OVCAR-3 ovarian): > 100 µM
- TGI (OVCAR-5 ovarian): > 100 µM
- TGI (MDA-N): > 100 µM
- TGI (786-0 renal): > 100 µM
- TGI (MOLT-4 leukemia): > 100 µM
- TGI (CAKI-1 renal): > 100 µM
- TGI (SN12C renal): > 100 µM
- TGI (SNB-75 CNS): > 100 µM
- TGI (SK-MEL-2 melanoma): > 100 µM
- TGI (MDA-MB-435): > 100 µM
- TGI (KM12 colon): > 100 µM
- TGI (TK-10 renal): > 100 µM
- TGI (UACC-257 melanoma): > 100 µM
- TGI (RXF 393 renal): 86.2 µM
- TGI (EKVX NSCLC): > 100 µM
- TGI (SF-539 CNS): > 100 µM
- TGI (MALME-3M melanoma): 67.2 µM
- TGI (A549 NSCLC): > 100 µM
- TGI (OVCAR-4 ovarian): 76.3 µM
- TGI (K-562 leukemia): > 100 µM
- TGI (OVCAR-8 ovarian): > 100 µM
- TGI (SK-OV-3 ovarian): > 100 µM
- TGI (DU-145 prostate): > 100 µM
- TGI (HS 578T breast): 93.9 µM
- TGI (SK-MEL-28 melanoma): > 100 µM
- TGI (COLO 205 colon): > 100 µM
- TGI (UACC-62 melanoma): > 100 µM
